Data on 32 molecules can be found in patent US20100029615A1, “BENZIMIDAZOLE DERIVATIVES” (priority 2006, published 2010).

Structures can show the parent of a compound that is named as a salt. Where two headings read alike, the source gives them in different places.

The target of the assay is T1, SMO (Mus musculus, UniProt P56726).
T1 construct: endogenous in cells; host or cells: C3H10T1/2 (ATCC #CCL-226)
The assay is described as follows: Smoothened (SMO)/Sonic Hedgehog (SHh) Transient Transcriptional Activation Assay (Gli-luciferase reporter in C3H10T1/2 cells). Particulars: SHh 250 ng/ml, 20 hrs; for SMO % inhibition at 2 uM: 2 uM test compound; for SMO CELL % INHIBITION @ 2 μM: 2 μM test compound. In kind it is cell-based, murine. A digest of the protocol:
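C3H10T1/2 cells transiently transfected with a 10× murine Gli-responsive firefly luciferase reporter plus pEGFP, serum-starved 20 h in 0.5% calf serum, then treated with compounds (2 uM–2 nM final) and 250 ng/ml recombinant human SHh for 20 h at 37 °C. Read-out: Dual-Glo luminescence.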

Setting [1] is: C3H 10T1/2, 2 uM test compound, read-out: SMO % inhibition at 2 uM.
The mark [2] stands for this setting: C3H 10T1/2, 2 μM test compound, read-out: SMO CELL % INHIBITION @ 2 μM.

T1 sequence (P56726 33-793): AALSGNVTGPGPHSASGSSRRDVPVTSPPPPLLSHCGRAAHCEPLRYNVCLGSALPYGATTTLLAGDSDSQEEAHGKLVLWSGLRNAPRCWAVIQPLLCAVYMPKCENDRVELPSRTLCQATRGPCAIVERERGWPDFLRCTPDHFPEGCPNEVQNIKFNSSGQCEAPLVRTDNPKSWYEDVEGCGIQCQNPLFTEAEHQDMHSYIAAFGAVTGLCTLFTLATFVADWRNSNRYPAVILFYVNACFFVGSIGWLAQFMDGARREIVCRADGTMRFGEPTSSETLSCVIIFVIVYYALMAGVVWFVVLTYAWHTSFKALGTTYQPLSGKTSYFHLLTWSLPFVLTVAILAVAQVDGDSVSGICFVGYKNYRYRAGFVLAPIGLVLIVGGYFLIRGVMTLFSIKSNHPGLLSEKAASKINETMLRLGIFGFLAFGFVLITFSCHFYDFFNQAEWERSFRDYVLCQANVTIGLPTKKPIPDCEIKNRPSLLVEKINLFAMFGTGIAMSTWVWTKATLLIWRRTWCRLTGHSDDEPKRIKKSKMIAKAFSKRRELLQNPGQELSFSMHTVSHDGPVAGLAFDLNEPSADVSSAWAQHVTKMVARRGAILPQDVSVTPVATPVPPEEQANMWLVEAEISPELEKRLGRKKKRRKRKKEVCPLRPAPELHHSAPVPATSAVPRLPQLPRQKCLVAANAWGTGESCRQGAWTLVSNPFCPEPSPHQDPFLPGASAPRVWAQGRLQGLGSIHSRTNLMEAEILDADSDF

Regarding `CCn1c(C2CCCC(NC(=O)c3ccc4c(c3)OCCO4)C2)nc2ccccc21` (centres unmarked) [Example 6, N-(3-(1-Ethyl-1H-benzo[d]imidazol-2-yl)cyclohexyl)-2,3-dihydrobenzo[b][1,4]dioxine-6-carboxamide], the inhibition at 2 µM under setting [1] stood at 58%.

As to `O=C(NC12CCCC(c3nc4cc(Cl)ccc4[nH]3)(C1)C2)c1cc2c(cn1)OCCO2` [Example 271, N-[5-(5-chloro-1H-benzimidazol-2-yl)bicyclo[3.1.1]hept-1-yl]-2,3-dihydro[1,4]di-oxino[2,3-c]pyridine-7-carboxamide], under setting [2], the inhibition at 2 µM turned out to be 84.7%.

On to `O=C1COc2ccc(C(=O)N[C@@H]3CCC[C@H](c4nc5ccccc5[nH]4)C3)cc2N1` [Example 173, N-[(1R,3S)-3-(1H-benzimidazol-2-yl)cyclohexyl]-3-oxo-3,4-dihydro-2H-1,4-benzoxazine-6-carboxamide HCl], for which the inhibition at 2 µM under setting [2] came to 97%.

Regarding “N-(3-(6-Isopropyl-1-methyl-1H-benzo[d]imidazol-2-yl)cyclohexyl)-2,3-dihydrobenzo[b][1,4]dioxine-6-carboxamide and N-(3-(5-isopropyl-1-methyl-1H-benzo[d]imidazol-2-yl)cyclohexyl)-2,3-dihydrobenzo[b][1,4]dioxine-6-carboxamide [Example 32]”, the “SMO % inhibition at 2 uM” value is given as 81%.

`O=C(N[C@@H]1CCC[C@H](c2nc3ccccc3[nH]2)C1)c1cc2ccccc2s1` [Example 182, N-[(1R,3S)-3-(1H-benzimidazol-2-yl)cyclohexyl]-1-benzothiophene-2-carboxamide triflouroacetate]: the inhibition at 2 µM under setting [2] was 106%.

Turning to `Cn1c(C23CCCC(NC(=O)c4ccc5c(c4)OCCO5)(C2)C3)nc2ccccc21` [Example 244, N-(5-(1-methyl-1H-benzo[d]imidaz-ol-2-yl)bicyclo[3.1.1]heptan-1-yl)-2,3-dihydrobenzo[b] [1,4]dioxine-6-carboxamide], under setting [2], the inhibition at 2 µM is 66%.

Turning to `O=C(NC1CCCC(c2nc3ccccc3[nH]2)C1)c1ccc2cc[nH]c2c1` (centres unmarked) [Example 140, N-[3-(1H-benzimidazol-2-yl)cyclohexyl]-1H-indole-6-carboxamide HCl], under setting [2], the inhibition at 2 µM was found to be 110%.

Take `O=C(NC1CCCC(c2nc3ccccc3[nH]2)C1)c1ccc2c(c1)OCCO2` (centres unmarked) [Example 1, N-(3-(1H-benzo[d]midazol-2-yl)cyclohexyl)-2,3-dihydrobenzo[b][1,4]dioxine-6-carboxamide]: the inhibition at 2 µM under setting [1] came out at 107%.

With “N-(3-(5-Bromo-1-methyl-1H-benzo[d]imidazol-2-yl)cyclohexyl)-3,5-dimethoxybenzamide and N-(3-(6-bromo-1-methyl-1H-benzo[d]imidazol-2-yl)cyclohexyl)-3,5-dimethoxybenzamide [Example 18]”, the “SMO % inhibition at 2 uM” value turned out to be 107%.

Consider “N-((1R,3S)-3-(1H-benzo[d]imidazol-2-yl)cyclohexyl]-2,3-dihydrobenzo[b][1,4]dioxine-6-carboxamide and N-((1S,3R)-3-(1H-benzo[d]imidazol-2-yl)cyclohexyl)-2,3-dihydrobenzo[b][1,4]dioxine-6-carboxamide [Example 2]”, for which the “SMO % inhibition at 2 uM” value was determined as 84%.

For the molecule `COc1ncccc1C(=O)NC1CCCC(c2nc3ccccc3[nH]2)C1` (centres unmarked) [Example 109, N-[3-(1H-benzimidazol-2-yl)cyclohexyl]-2-methoxynico-tinamide triflouroacetate], the inhibition at 2 µM under setting [2] came to 97%.

On to `O=C(Nc1cc(F)cc2c1OCOC2)N[C@@H]1CCC[C@H](c2nc3ccccc3[nH]2)C1` [Example 230, 1-[(1R,3S)-3-(1H-benzimidazol-2-yl)cyclohexyl]-3-(6-fluoro-4H-1,3-benzodioxol-8-yl)urea], for which the inhibition at 2 µM under setting [2] was determined as 111%.

In the case of `O=C(Nc1ccc(F)c(C(F)(F)F)c1)NC12CCCC(c3nc4ccccc4[nH]3)(C1)C2` [Example 255, 1-(5-(1H-benzo[d]imidaz-ol-2-yl)bicyclo[3.1.1]heptan-1-yl)-3-(4-fluoro-3-(trifluoromethyl)phenyl)urea HCL], under setting [2], the inhibition at 2 µM was determined as 101%.

Take `O=C(CN1CCCCCC1=O)NC1CCCC(c2nc3ccccc3[nH]2)C1` (centres unmarked) [Example 112, N-[3-(1H-benzimidazol-2-yl)cyclohexyl]-2-(2-oxoazepan-1-yl)acetamide triflouroacetate]: the inhibition at 2 µM under setting [2] is 93%.

For the molecule `CC(C)(C)C(=O)NC1CCCC(c2nc3ccccc3[nH]2)C1` (centres unmarked) [Example 55, N-[3-(1H-benzimidazol-2-yl)cyclohexyl]-2,2-dimethylpropan-amide HCl], under setting [2], the inhibition at 2 µM was 57%.

With `Cl.O=C(NC12CCCC(c3nc4cc(C(F)(F)F)ccc4[nH]3)(C1)C2)c1ccc2c(c1)OCCO2` [Example 258, N-{5-[5-(trifluoromethyl)-1H-benzimidazol-2-yl]bicyclo[3.1.1]hept-1-yl}-2,3-dihydro-1,4-benzodioxine-6-carboxamide HCL], the “SMO CELL % INHIBITION @ 2 μM” value is 99.22%.

For the molecule `O=C(Cn1ccc2sccc2c1=O)NC1CCCC(c2nc3ccccc3[nH]2)C1` (centres unmarked) [Example 128, N-[3-(1H-benzimidazol-2-yl)cyclohexyl]-2-(4-oxothieno[3,2-c]pyridin-5(4H)-yl)acetamide triflouroacetate], the “SMO CELL % INHIBITION @ 2 μM” value worked out at 100%.

With `O=C(NC1CCCC(c2nc3ccccc3[nH]2)C1)c1ccc(-n2ccnc2)cc1` (centres unmarked) [Example 90, N-[3-(1H-benzimidazol-2-yl)cyclohexyl]-4-(1H-imidazol-1-yl)benzamide triflouroacetate], the inhibition at 2 µM under setting [2] turned out to be 100%.

For the molecule `COc1ccc2oc(C(=O)N[C@@H]3CCC[C@H](c4nc5ccccc5[nH]4)C3)cc2c1` [Example 184, N-[(1R,3S)-3-(1H-benzimidazol-2-yl)cyclohexyl]-5-methoxy-1-benzofuran-2-carboxamide triflouroacetate], the inhibition at 2 µM under setting [2] was 61%.

Turning to `Cc1cccc(=O)n1CC(=O)N[C@@H]1CCC[C@H](c2nc3cc(C(F)(F)F)ccc3[nH]2)C1` [Example 282, 2-(6-methyl-2-oxopyridin-1(2H)-yl)-N-{(1R,3S)-3-[5-(trifluoromethyl)-1H-benzimidazol-2-yl]cyclohexyl} acetamide HCl], the inhibition at 2 µM under setting [2] is 85.2%.

As for `O=C(NC1CCCC(c2nc3ccccc3[nH]2)C1)c1ccc(-c2cnco2)cc1` (centres unmarked) [Example 160, N-[3-(1H-benzimidazol-2-yl)cyclohexyl]-4-(1,3-oxazol-5-yl)benzamide triflouroacetate], the inhibition at 2 µM under setting [2] was 72%.

On to `Cc1nc2cc(C(=O)N[C@@H]3CCC[C@H](c4nc5ccccc5[nH]4)C3)ccc2[nH]1` [Example 197, N-[(1R,3S)-3-(1H-benzimidazol-2-yl)cyclohexyl]-2-methyl-1H-benzimidazole-5-carboxamide triflouroacetate], for which the inhibition at 2 µM under setting [2] was 50%.

Take `Cn1c(C2CCCC(NC(=O)c3ccc4c(c3)OCCO4)C2)nc2cc(CN)ccc21` (centres unmarked) [Example 73, N-{3-[5-(aminomethyl)-1-methyl-1H-benzimidazol-2-yl]cyclohexyl}-2,3-dihydro-1,4-benzodioxine-6-carboxamide HCl]: under setting [2], the inhibition at 2 µM is 104%.

`CC(C(=O)NC1CCCC(c2nc3ccccc3[nH]2)C1)n1cccn1` (centres unmarked) [Example 142, N-[3-(1H-benzimidazol-2-yl)cyclohexyl]-2-(1H-pyrazol-1-yl)propanamide triflouroacetate]: the inhibition at 2 µM under setting [2] was 69%.

As to “N-((1R,3R)-3-(1H-benzo[d]imidazol-2-yl)cyclohexyl)-3-oxo-3,4-dihydro-2H-benzo[b][1,4]oxazine-6-carboxamide and N-((1S,3S)-3-(1H-benzo[d]imidazol-2-yl)cyclohexyl)-3-oxo-3,4-dihydro-2H-benzo[b][1,4]oxazine-6-carboxamide [Example 48]”, the “SMO % inhibition at 2 uM” value was found to be 80%.

Consider `Cl.O=C(N[C@H]1CCC[C@H](c2nc3ccccc3[nH]2)C1)c1ccc2c(c1)CN(CC1CC1)CC2` [Example 291, N-[(1S,3S)-3-(1H-benzimidazol-2-yl)cyclohexyl]-2-(cyclopropyl-methyl)-1,2,3,4-tetrahydroisoquino-line-7-carboxamide HCl], for which the “SMO CELL % INHIBITION @ 2 μM” value is on record as 85.2%.

Consider `Cc1nn(C)c2sc(C(=O)N[C@@H]3CCC[C@H](c4nc5ccccc5[nH]4)C3)cc12` [Example 204, N-[(1R,3S)-3-(1H-benzimidazol-2-yl)cyclohexyl]-1,3-dimethyl-1H-thieno[2,3-c]pyrazole-5-carboxamide triflouroacetate], for which the inhibition at 2 µM under setting [2] was 103%.

Turning to “N-((1R,3R)-3-(5-Methoxy-1H-benzo[d]imidazol-2-yl)cyclohexyl)-2,3-dihydrobenzo[b][1,4]dioxine-6-carboxamide and N-((1S,3S)-3-(5-methoxy-1H-benzo[d]imidazol-2-yl)cyclohexyl)-2,3-dihydrobenzo[b][1,4]dioxine-6-carboxamide [Example 49]”, the “SMO % inhibition at 2 uM” value is 92%.

Regarding `COc1ccc(C(=O)NC2CCCC(c3nc4ccccc4[nH]3)C2)cc1Cl` (centres unmarked) [Example 59, N-[3-(1H-benzimidazol-2-yl)cyclohexyl]-3-chloro-4-methoxybenz-amide HCl], under setting [2], the inhibition at 2 µM was determined as 101%.

For the molecule `O=C(N[C@@H]1CCC[C@H](c2nc3ccccc3[nH]2)C1)c1ccc2c(c1)OCO2` [Example 186, N-[(1R,3S)-3-(1H-benzimidazol-2-yl)cyclohexyl]-1,3-benzodioxole-5-carboxamide triflouroacetate], under setting [2], the inhibition at 2 µM was 59%.

In the case of `N#Cc1ccc(NC(=O)N[C@@H]2CCC[C@H](c3nc4ccccc4[nH]3)C2)cc1` [Example 228, 1-[(1R,3S)-3-(1H-benzimidazol-2-yl)cyclohexyl]-3-(4-cyanophenyl) urea], the inhibition at 2 µM under setting [2] was determined as 109%.

For `COc1cc(OC)cc(C(=O)NC2CCCC(c3nc4ccc(NS(C)(=O)=O)cc4[nH]3)C2)c1` (centres unmarked) [Example 11, 3,5-Dimethoxy-N-(3-(5-(methylsulfonamido)-1H-benzo[d]imidazol-2-yl)cyclohexyl)benzamide], the inhibition at 2 µM under setting [1] came out at 86%.
